Source: a melting point compilation (Tetko et al.; mined from patent text by program, amines drawn as free bases though some values may be those of a salt)

SMILES	melting point [°C]
OC(COc1ccc(Cl)cc1)CN1CCN(c2ncccc2F)CC1 (stereo unspecified)	73 to 76
CC(=O)c1ccccc1CC1CNC(=O)O1 (stereo unspecified)	85 to 86
Cc1cc2[nH]c(=O)ccc(=O)c2cc1C	258
CCCC(NS(=O)(=O)c1ccc(C)cc1)P(=O)(Oc1ccccc1)Oc1ccccc1 (stereo unspecified)	178 to 180
CC(C)=CCn1ccnc1[N+](=O)[O-]	48 to 49
O=C(Nc1ccc(CN2CCCCC2)cc1)C1=Cc2cc(-c3ccccc3)ccc2CC1	163 to 164
CC(=N)NC=Cc1ccc([N+](=O)[O-])cc1	142 to 143
CC(CCCO)C1CCC2C3C(O)CC4CC(O)CCC4(C)C3CC(O)C12C (stereo unspecified)	226 to 227
N#Cc1c(-c2ccc(Cl)cc2)[nH]c(SC(F)(F)F)c1Br	241 to 243
O=C(O)c1ccccc1Nc1ccc(Cl)cc1[N+](=O)[O-]	235 to 247
C[C@@H](C(O)=S)c1cc(C(C)(C)C)c(O)c(C(C)(C)C)c1	111 to 112
CC(=O)N(c1cc(F)c(C#N)cc1F)c1nnnn1-c1ccc(OC(F)(F)F)cc1	108 to 110
CC(=O)N(C)c1cccc2c1nc(-c1c(F)cccc1F)n2Cc1c(F)cccc1F	155 to 156
Cc1cc(C(N)=O)cc(C)c1C(=O)O	238 to 240
CN(C)CCNc1c(-c2ccccc2)c(=O)[nH]c2cc(Cl)ccc12	230
COC(=O)c1ccc(OCCNC(=O)C2Cc3ccccc3N2S(=O)(=O)c2ccc(-c3ccc(F)cc3Cl)cc2)cc1F (stereo unspecified)	71 to 76
Cc1ccc2cccc(OCc3c(Cl)ccc(S(=O)(=O)N(C)CCCCCC(=O)O)c3Cl)c2n1	98 to 102
CC1(C)COC1(Cn1cncn1)c1ccc(Cl)cc1 (stereo unspecified)	90 to 102
CC(C)=CCCN1C(=O)c2ccccc2C1=O	95 to 97
Clc1ccc2c(c1)C(c1ccccn1)=NCc1ccccc1-2	153 to 155
COC1CCN(c2c(F)cc3c(=O)c(C(=O)O)cn4c3c2CCC4C)CC1 (stereo unspecified)	249 to 251
CNC(=O)NC(=O)C(CC1CCCC1)c1ccc(C(F)(F)F)c(F)c1 (stereo unspecified)	187 to 189
CC(=O)Nc1ccc(C(C)(C)C)cc1OC(C)=O	109 to 110
CC(C)(C)OC(=O)NN(Cc1ccc(Cl)cc1)C(=O)OCC1c2ccccc2-c2ccccc21	53 to 55
COCc1nsc2ccc(-n3c(=O)cc(C(F)(F)F)n(C)c3=O)cc12	161 to 163
CCC(C)(C)NCCC(C(=O)O)C(=O)c1ccc(Cl)cc1Cl (stereo unspecified)	124 to 126

SMILES	melting point [°C]
CCOC(=O)CCC(=O)c1ccc(-c2ccccc2F)cc1	56 to 58
N#Cc1nn(-c2c(Cl)cc(C(F)(F)F)cc2Cl)c(N)c1-c1onc(Br)c1Br	279
CN(Cc1ccc(NC(=O)C2=Cc3cc(-c4ccc5c(c4)OCCCO5)ccc3S(=O)(=O)CC2)cc1)C1CCOCC1	242 to 245
O=C(O)c1cccc(NC(=O)C(COC2CCCCO2)NS(=O)(=O)c2ccc(Cl)cc2)c1 (stereo unspecified)	84 to 124
CC(=O)n1nc(C)c(Oc2cc(Cl)cc(Cl)c2)c1C	< 60
O=S(=O)(c1ccccc1)n1cc(I)c2c(OC3CCCCC3)ccnc21	112 to 114
O=C(O)[C@H]1CCn2c(cc3ccccc32)C1	244 to 246
Cc1cccc(Cc2ccc(-c3cnn4c(O)ncnc34)cc2C)c1	259 to 262
CCc1nn(C(C)C)c2cc(C(=O)Nc3c(Cl)cncc3Cl)ccc12	145 to 148
CN1C(=O)c2cnc(-c3ccccc3)nc2N(C(=O)CN2CCN(Cc3ccccc3)CC2)c2ccccc21	194
N#Cc1cnc2cc(/C=C/CCCCN3CCOCC3)ccc2c1Nc1ccc(Cl)cc1Cl	139 to 140
Cn1cccc1C(=NOCc1cccs1)C(=O)O	70 to 71
CC(CCN1C(=O)c2ccccc2C1=O)Cc1ccc(C(=O)CCC(=O)O)cc1 (stereo unspecified)	142 to 143
CNc1cc(Oc2ccc3ncccc3c2)ncn1	173
CCOC(=O)c1ccc(OCCCCCCCCCCCCCCCOc2ccc(Cl)cc2)cc1	84 to 85
CC(=O)N1CCC(NC(=O)Nc2cccc(C(F)(F)F)c2)CC1	212 to 217
COC(=O)c1ccc2cc(-c3ccccc3)[nH]c2c1	208 to 210
Cc1ccc2c(c1)C=C(C(=O)O)C(C(F)(F)F)S2 (stereo unspecified)	181 to 184
Cc1ccc(N2CCN3C(=O)CCC3C2=O)cc1 (stereo unspecified)	115 to 117
CCC(=O)c1cc(CC)c(O)cc1O	74 to 75
O=[N+]([O-])Nc1ccnc(Cl)c1	163 to 164
O=c1ccc(-c2ccccc2F)n[nH]1	173 to 175
COc1cc(C(=O)c2ncc3ccc(N)cn23)ccc1[N+](=O)[O-]	252
Cc1ccc(-c2nc3ccc(N(C)C)cn3c2CNC(=O)CC(C)C)cc1	173 to 175
NS(=O)(=O)c1cc(S(N)(=O)=O)c(-c2ccccc2)cc1F	174 to 175
CN(C)C(=O)OCCn1nc(-c2cc(C(C)(C)C)c(O)c(C(C)(C)C)c2)c2cccnc21	99 to 101

SMILES	melting point [°C]
O=C(Nc1ccc(C(F)(F)F)cc1)C1=NN(c2ccc(Cl)cc2)C(c2ccco2)C1 (stereo unspecified)	167 to 171
CC1CC2(CC(C)(C)C1=O)OC(C)C(C)O2 (stereo unspecified)	71 to 72
C(=CCN(c1ccccc1)c1ccccc1)CN(c1ccccc1)c1ccccc1	105 to 107
CC(Br)=C(c1ccc(N(C)C)cc1)c1ccc(N(C)C)cc1	119 to 122
Cc1nc(NC(=O)c2cnn3c(C(F)F)cc(-c4ccc(C(F)(F)F)cc4)nc23)sc1S(=O)(=O)NCCN(C)C	217
CC=CCn1c(Nc2cc(C)cc(C)c2)c(C(C)C)c(=O)[nH]c1=O	186 to 187
CNC(=O)C(C)Oc1ccc(Oc2ccc(C(F)(F)F)cc2)cc1 (stereo unspecified)	129 to 133
Cc1cc2c(s1)S(=O)(=O)N=C(NC(C)C)N2	272 to 273
O=C(NCCOc1cccnn1)C1Cc2ccccc2N1S(=O)(=O)c1ccc(-c2cccc(C(F)(F)F)c2)cc1 (stereo unspecified)	65 to 71
NCCNc1cc(-n2cccn2)nc(-c2cccs2)n1	147
CC1CCc2ccc(CC(=O)O)cc2C(=O)C1 (stereo unspecified)	105 to 107
Cc1nnc(NCCN2CCC(Nc3nc4ccccc4n3Cc3ccc(F)cc3)CC2)s1	191
O=C(N[C@@H](Cn1cccn1)C(=O)O)OCc1ccccc1	166 to 168
COc1cc(C(O)c2ccnn2C)c(Cl)c(Cl)c1OC (stereo unspecified)	149 to 154
COc1cc2c(cc1C(C)(C)c1ccccc1)OCO2	75 to 76
CCNCC1CCN(c2c(F)cc3c(=O)c(C(=O)O)cn(C4CCCCC4)c3c2F)C1 (stereo unspecified)	194 to 196
CNC(=C[N+](=O)[O-])NCCSCC1(OC)C=CC=NC1 (stereo unspecified)	146 to 147
COC(=O)c1ccc2ncn(-c3ccc(OC)cc3)c2c1	112 to 113
OCc1ccnc(Br)c1	63.3 to 64.4
CN(Cc1cccc(Cl)c1)c1ccc(C(N)=O)nc1	178 to 183
CC(C)(C)OC(=O)N1CCc2ccc(NS(C)(=O)=O)cc2CC1	153 to 154
CCOC(=O)C1(Nc2ccc(C(O)(C(F)(F)F)C(F)(F)F)cc2)CCC(C(C)(C)C)CC1 (stereo unspecified)	107
C[C@@H]1Cc2c(N3CCN(C)CC3)c(F)cc3c(=O)c(C(=O)O)cn1c23	249 to 252
COc1ccc(N2C(=O)NC(=O)C23CCCCC3)cc1	203 to 205
C=C1CCCC2(C)C1=CC(=O)C1C3CCC(=O)C3(C)CCC12 (stereo unspecified)	132
O=S1(=O)N(CCCN2CC=C(c3ccccc3)CC2)c2cccc3cccc(c23)N1CCCN1CC=C(c2ccccc2)CC1	140

SMILES	melting point [°C]
CCc1nn(CCO)c(CC)c1Oc1cc(C#N)cc(-n2cncn2)c1	122 to 124
CC1(CO)C(O)CCC2(C)C1CCC1CC3CC12CCC3(O)CO (stereo unspecified)	290 to 300
COc1ccc(OP(Oc2ccc(OC)cc2C(C)(C)C)Oc2ccc(OC)cc2C(C)(C)C)c(C(C)(C)C)c1	82 to 86
COc1ccc(C2(O)C(c3ccccc3Cl)SC3=NCCCCN32)cc1OC (stereo unspecified)	98 to 100
CC(=O)NCCc1ccc(CN2CCN(c3ccccc3)CC2)cc1	117 to 118
COC(=O)C1(OC)CC(C)C(=O)C=C1O (stereo unspecified)	117 to 118
CCN(CC)CCN(C)CCC1CCCCN1C(=O)N1c2ccccc2NC(=O)c2csc(C)c21 (stereo unspecified)	131 to 133
O=C1NC(c2ccccc2)c2cc(Cl)ccc2-n2nc(CO)cc21 (stereo unspecified)	260 to 262
CCCCn1c(=O)c(C#N)c(N2CCN(C(=O)c3cccs3)CC2)c2cccnc21	143
Oc1ccc(-c2ncn(CC(O)(Cn3cncn3)c3ccc(F)cc3F)n2)cc1 (stereo unspecified)	120 to 127
O=C1NC(=O)c2c1c(-c1ccccc1Cl)cc1c2c2cc(O)ccc2n1CCCSc1ccccc1	229 to 231
FC(F)Oc1ccc2c(Cc3c(Cl)cncc3Cl)nnc(-n3cncn3)c2c1	220 to 224
COC(=O)c1ccc(NC(C)=O)c(CC(=O)O)c1	194
O=c1oc(/C=C/c2ccccc2)ns1	105 to 106
CC(c1oc2ccc(Br)cc2c(=O)c1-c1ccccc1)n1cnc2c(N)ncnc21 (stereo unspecified)	230 to 231
COC(=O)c1cccc(NC(=O)[C@H](Cc2ccccc2)NC(=O)OC(C)(C)C)c1	62 to 66
CN(C)c1ccnc(-c2ccncc2)n1	109 to 110
CCOC(=O)c1ccc(N(CC)CCc2ccccc2OCc2ccccc2)cc1	76
CCCCCCc1ccc(S(=O)(=O)Nc2nncs2)cc1	125 to 126
CNC(=O)c1ccc(-n2nc(C(=O)NC3(C(=O)O)C4CC5CC(C4)CC3C5)cc2-c2c(OC)cccc2OC)c2ccccc12 (stereo unspecified)	170
COC(=O)Cc1csc2c(OCc3cc(-c4ccc(Cl)cc4)on3)cccc12	155 to 156
CCc1cccc2c(/C=C(\C)C(=O)O)cc(OC)c(OC(C)=O)c12	148 to 150
Cc1cc(C)c2c(n1)Nc1cc(C)c(C)cc1N(C)C2=O	225 to 227
